Laboratory results as given in ChEMBL document CHEMBL1909046, “DrugMatrix in vitro pharmacology data”.
pIC50, pKi: −log10 of the molar value.

Columns and labels:
[1] = molecular target: T1, Polyunsaturated fatty acid lipoxygenase ALOX15 (Oryctolagus cuniculus, UniProt P12530); assay: biochemical; type: tissue-based, Reticulocytes; conditions: for IC50: reticulocytes; for pIC50: read-out: IC50;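 for all read-outs here: inhibition of 15-lipoxygenase enzyme activity measured with linoleic acid as the substrate; in other assays of this panel Not Active means under 50% inhibition at 10 µM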
T1 sequence (P12530 whole entry): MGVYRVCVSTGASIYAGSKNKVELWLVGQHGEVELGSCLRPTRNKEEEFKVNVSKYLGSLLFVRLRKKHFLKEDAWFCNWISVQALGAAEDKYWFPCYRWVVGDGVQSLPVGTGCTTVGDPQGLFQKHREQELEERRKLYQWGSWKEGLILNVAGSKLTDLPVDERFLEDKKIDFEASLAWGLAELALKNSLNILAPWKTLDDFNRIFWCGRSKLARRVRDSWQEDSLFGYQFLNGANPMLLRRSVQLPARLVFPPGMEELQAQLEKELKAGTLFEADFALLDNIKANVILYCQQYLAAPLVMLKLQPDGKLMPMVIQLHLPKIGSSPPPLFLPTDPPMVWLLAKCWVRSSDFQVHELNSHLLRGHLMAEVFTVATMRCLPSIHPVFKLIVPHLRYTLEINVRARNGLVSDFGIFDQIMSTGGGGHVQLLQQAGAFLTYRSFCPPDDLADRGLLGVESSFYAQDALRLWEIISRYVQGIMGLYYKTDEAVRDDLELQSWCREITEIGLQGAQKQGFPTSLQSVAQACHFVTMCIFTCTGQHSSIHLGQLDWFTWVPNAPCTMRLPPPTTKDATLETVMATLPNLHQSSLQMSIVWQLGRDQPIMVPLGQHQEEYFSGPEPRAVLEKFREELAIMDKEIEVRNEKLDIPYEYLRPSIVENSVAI

[2] = molecular target: T2, Nitric oxide synthase, inducible (Mus musculus, UniProt P29477); set-up: species or system Escherichia coli;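 note: inhibition of iNOS enzyme activity measured with L-arginine as substrate; in other assays of this panel Not Active means under 50% inhibition at 10 µM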
T2 sequence (P29477 whole entry): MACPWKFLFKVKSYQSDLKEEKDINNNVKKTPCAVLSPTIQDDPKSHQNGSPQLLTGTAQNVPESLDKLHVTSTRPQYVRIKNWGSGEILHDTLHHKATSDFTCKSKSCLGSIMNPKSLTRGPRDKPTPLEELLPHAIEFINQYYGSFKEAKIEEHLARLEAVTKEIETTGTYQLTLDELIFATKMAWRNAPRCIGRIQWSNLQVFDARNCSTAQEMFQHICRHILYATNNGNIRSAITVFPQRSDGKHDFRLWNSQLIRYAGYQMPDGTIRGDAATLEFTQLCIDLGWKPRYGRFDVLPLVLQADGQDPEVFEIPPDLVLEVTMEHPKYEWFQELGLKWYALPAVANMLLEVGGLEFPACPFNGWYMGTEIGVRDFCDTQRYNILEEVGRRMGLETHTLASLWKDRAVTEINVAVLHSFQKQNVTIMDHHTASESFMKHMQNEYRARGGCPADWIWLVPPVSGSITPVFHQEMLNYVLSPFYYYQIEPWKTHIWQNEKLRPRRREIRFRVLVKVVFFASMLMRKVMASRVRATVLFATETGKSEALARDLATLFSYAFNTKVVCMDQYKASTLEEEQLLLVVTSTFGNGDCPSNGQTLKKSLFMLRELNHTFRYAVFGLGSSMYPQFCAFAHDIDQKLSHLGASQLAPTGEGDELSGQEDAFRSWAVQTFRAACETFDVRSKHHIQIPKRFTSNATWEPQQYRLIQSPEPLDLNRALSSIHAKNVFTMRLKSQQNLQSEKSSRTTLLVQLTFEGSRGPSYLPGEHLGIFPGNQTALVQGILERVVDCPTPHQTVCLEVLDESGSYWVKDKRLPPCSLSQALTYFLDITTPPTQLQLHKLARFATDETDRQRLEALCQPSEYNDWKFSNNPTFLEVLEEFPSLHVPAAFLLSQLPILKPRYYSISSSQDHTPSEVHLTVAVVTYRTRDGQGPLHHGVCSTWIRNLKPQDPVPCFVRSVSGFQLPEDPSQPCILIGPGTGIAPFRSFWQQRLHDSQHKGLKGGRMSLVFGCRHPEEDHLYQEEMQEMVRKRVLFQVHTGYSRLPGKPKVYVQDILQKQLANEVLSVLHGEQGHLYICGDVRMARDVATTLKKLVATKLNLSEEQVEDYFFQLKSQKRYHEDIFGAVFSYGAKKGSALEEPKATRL

[3] = molecular target: Mu-type opioid receptor (Homo sapiens, UniProt P35372); assay: DRUGMATRIX: Opiate mu (OP3, MOP) radioligand binding (ligand: [3H] Diprenorphine); type: cell membranes, CHO-K1, Membrane; conditions: Not Active = under 50% inhibition at 10 µM; for IC50: cho-k1
Sequence of Mu-type opioid receptor (P35372 whole entry): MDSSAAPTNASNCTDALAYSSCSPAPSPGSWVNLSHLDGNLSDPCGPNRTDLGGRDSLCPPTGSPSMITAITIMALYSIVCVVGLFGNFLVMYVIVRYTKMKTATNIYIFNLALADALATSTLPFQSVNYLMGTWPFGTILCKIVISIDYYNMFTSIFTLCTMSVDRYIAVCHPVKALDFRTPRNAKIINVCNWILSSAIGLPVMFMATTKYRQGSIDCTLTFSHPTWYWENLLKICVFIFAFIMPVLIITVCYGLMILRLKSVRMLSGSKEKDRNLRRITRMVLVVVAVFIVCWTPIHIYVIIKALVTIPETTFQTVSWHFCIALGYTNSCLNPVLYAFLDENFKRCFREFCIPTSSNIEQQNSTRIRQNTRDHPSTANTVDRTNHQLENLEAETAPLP

[4] = molecular target: Tyrosine-protein kinase Lck (Homo sapiens, UniProt P06239); assay: DRUGMATRIX: Protein Tyrosine Kinase, LCK enzyme inhibition (substrate: Poly(Glu:Tyr)); type: cell-based, Insect cells; conditions: Not Active = under 50% inhibition at 10 µM; for IC50: insect cells
Sequence of Tyrosine-protein kinase Lck (P06239 whole entry): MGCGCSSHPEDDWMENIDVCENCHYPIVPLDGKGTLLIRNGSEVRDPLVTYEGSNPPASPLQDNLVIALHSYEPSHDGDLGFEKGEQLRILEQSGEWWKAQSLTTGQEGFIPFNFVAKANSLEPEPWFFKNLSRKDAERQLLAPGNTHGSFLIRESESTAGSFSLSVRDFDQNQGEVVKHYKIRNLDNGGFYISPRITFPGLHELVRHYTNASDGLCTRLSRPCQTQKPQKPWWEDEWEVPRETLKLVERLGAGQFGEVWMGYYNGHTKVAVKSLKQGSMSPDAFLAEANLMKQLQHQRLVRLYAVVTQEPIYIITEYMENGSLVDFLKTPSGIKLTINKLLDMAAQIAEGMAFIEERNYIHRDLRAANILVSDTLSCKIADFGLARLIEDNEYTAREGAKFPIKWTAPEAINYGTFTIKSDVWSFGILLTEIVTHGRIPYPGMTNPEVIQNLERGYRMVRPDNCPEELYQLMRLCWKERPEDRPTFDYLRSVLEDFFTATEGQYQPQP

[5] = molecular target: T3, Cytochrome P450 1A2 (Homo sapiens, UniProt P05177); conditions: bti-tn-5b1-4; note: in other assays of this panel Not Active means under 50% inhibition at 10 µM
T3 sequence (P05177 whole entry): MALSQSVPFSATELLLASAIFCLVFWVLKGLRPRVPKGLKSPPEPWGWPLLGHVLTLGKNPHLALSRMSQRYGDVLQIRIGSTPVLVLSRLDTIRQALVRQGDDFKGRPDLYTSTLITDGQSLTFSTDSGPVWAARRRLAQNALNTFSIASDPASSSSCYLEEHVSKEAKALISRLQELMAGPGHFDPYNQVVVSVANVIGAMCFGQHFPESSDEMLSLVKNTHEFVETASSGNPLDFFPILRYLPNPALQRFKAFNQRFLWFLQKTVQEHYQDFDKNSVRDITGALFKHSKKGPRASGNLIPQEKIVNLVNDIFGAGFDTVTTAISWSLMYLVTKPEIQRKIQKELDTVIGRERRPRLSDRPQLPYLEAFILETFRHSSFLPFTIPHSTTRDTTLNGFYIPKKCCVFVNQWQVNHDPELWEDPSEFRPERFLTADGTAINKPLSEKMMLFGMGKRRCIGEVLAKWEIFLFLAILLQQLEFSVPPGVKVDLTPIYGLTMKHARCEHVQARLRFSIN

[6] = molecular target: Cytochrome P450 2C19 (Homo sapiens, UniProt P33261); conditions: bti-tn-5b1-4; note: in other assays of this panel Not Active means under 50% inhibition at 10 µM
Sequence of Cytochrome P450 2C19 (P33261 whole entry): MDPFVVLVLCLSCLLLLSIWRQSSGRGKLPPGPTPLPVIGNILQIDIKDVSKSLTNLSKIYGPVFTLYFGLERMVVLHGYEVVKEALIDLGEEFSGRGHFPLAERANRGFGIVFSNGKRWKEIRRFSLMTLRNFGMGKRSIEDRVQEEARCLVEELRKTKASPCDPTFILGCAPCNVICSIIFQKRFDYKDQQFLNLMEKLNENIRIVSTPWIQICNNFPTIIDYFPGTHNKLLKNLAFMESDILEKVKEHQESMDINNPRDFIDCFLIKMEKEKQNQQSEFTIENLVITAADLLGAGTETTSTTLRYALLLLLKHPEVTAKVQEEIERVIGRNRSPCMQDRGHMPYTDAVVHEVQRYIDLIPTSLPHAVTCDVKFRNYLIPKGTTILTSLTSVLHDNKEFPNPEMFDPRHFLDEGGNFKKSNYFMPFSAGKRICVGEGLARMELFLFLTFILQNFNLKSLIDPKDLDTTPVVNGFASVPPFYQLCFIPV

SMILES | IC50 [1] | IC50 [2] | IC50 [3] | IC50 [4] | IC50 [5] | Ki [5] | IC50 [6] | Ki [6] | pIC50 [1] | pKi [3] | pIC50 ([3]; read-out: IC50) | pIC50 ([4]; read-out: IC50)
O=C(O)CCCc1cccs1 | Not Active | Not Active | Not Active | Not Active | Not Active | Not Active | Not Active | Not Active | – | – | – | –
COc1ccccc1N | – | Not Active | Not Active | Not Active | Not Active | Not Active | Not Active | Not Active | 5.69 | – | – | –
Cc1c(O)cccc1C(=O)N[C@@H](CSc1ccccc1)[C@H](O)CN1C[C@H]2CCCC[C@H]2C[C@H]1C(=O)NC(C)(C)C | – | Not Active | – | – | Not Active | Not Active | Not Active | Not Active | 4.86 | 5.23 | 4.84 | 4.10
CC(O)COC[C@H]1O[C@@H]2O[C@H]3[C@H](O)[C@@H](O)[C@@H](O[C@H]4[C@H](O)[C@@H](O)[C@@H](O[C@H]5[C@H](O)[C@@H](O)[C@@H](O[C@H]6[C@H](O)[C@@H](O)[C@@H](O[C@H]7[C@H](O)[C@@H](O)[C@@H](O[C@H]8[C@H](O)[C@@H](O)[C@@H](O[C@H]1[C@H](O)[C@H]2O)O[C@@H]8COCC(C)O)O[C@@H]7COCC(C)O)O[C@@H]6COCC(C)O)O[C@@H]5COCC(C)O)O[C@@H]4COCC(C)O)O[C@@H]3COCC(C)O (stereo partly drawn) [2-HYDROXYPROPYL-BETA-CYCLODEXTRIN] | Not Active | Not Active | Not Active | Not Active | Not Active | Not Active | Not Active | Not Active | – | – | – | –
NC(=O)c1cccc(N)c1 [3-AMINOBENZAMIDE] | Not Active | Not Active | Not Active | Not Active | Not Active | Not Active | Not Active | Not Active | – | – | – | –
C[C@H]1O[C@H](O[C@H]2[C@H](O)[C@@H](O)[C@@H](O[C@H]3[C@H](O)[C@@H](O)C(O)O[C@@H]3CO)O[C@@H]2CO)[C@H](O)[C@@H](O)[C@@H]1N[C@H]1C=C(CO)[C@@H](O)[C@H](O)[C@H]1O (some centres not stated) [ACARBOSE] | Not Active | Not Active | Not Active | Not Active | Not Active | Not Active | Not Active | Not Active | – | – | – | –
CC[C@H]1[C@@H]2C[C@H]3[C@@H]4N(C)c5ccccc5[C@]45C[C@@H]([C@@H]2[C@H]5O)N3[C@@H]1O [AJMALINE] | Not Active | Not Active | Not Active | Not Active | Not Active | Not Active | Not Active | Not Active | – | – | – | –
NCCCNCCSP(=O)(O)O [AMIFOSTINE] | Not Active | Not Active | Not Active | Not Active | Not Active | Not Active | Not Active | Not Active | – | – | – | –
CN(C)CCC=C1c2ccccc2CCc2ccccc21 [AMITRIPTYLINE] | Not Active | Not Active | Not Active | Not Active | Not Active | Not Active | Not Active | Not Active | – | – | – | –
CC(=O)Oc1ccccc1C(=O)O [ASPIRIN] | Not Active | Not Active | Not Active | Not Active | Not Active | Not Active | Not Active | Not Active | – | – | – | –
CC(=O)OC[C@H]1O[C@@H](n2ncc(=O)[nH]c2=O)[C@H](OC(C)=O)[C@@H]1OC(C)=O [AZARIBINE] | Not Active | Not Active | Not Active | Not Active | Not Active | Not Active | Not Active | Not Active | – | – | – | –
C[C@H]1[C@H](NC(=O)/C(=N\OC(C)(C)C(=O)O)c2csc(N)n2)C(=O)N1S(=O)(=O)O [AZTREONAM] | Not Active | Not Active | Not Active | Not Active | Not Active | Not Active | Not Active | Not Active | – | – | – | –
O=C(O)CCNC(=O)c1ccc(/N=N/c2ccc(O)c(C(=O)O)c2)cc1 [BALSALAZIDE] | Not Active | Not Active | Not Active | Not Active | Not Active | Not Active | Not Active | Not Active | – | – | – | –
COc1cc(OC)c(C(=O)CCCN2CCCC2)c(OC)c1 [BUFLOMEDIL] | Not Active | Not Active | Not Active | Not Active | Not Active | Not Active | Not Active | Not Active | – | – | – | –
Cn1c(=O)c2c(ncn2C)n(C)c1=O [CAFFEINE] | Not Active | Not Active | Not Active | Not Active | Not Active | Not Active | Not Active | Not Active | – | – | – | –
ClC(Cl)(Cl)Cl [CARBON TETRACHLORIDE] | Not Active | Not Active | Not Active | Not Active | Not Active | Not Active | Not Active | Not Active | – | – | – | –
C#C[C@]1(O)CC[C@H]2[C@@H]3CCC4=CC(=O)CC[C@]4(C)[C@H]3CC[C@@]21C [ETHISTERONE] | Not Active | Not Active | Not Active | Not Active | – | – | Not Active | Not Active | – | – | – | –
CN(C)C(=N)NC(=N)N [METFORMIN] | Not Active | Not Active | Not Active | Not Active | – | – | Not Active | Not Active | – | – | – | –
CC(C)(C)NCC(O)COc1cccc2c1CC(O)C(O)C2 (configuration not stated) [NADOLOL] | Not Active | Not Active | Not Active | Not Active | – | – | Not Active | Not Active | – | – | – | –
